Measured values from PubChem BioAssay (NCI).
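Step 1: Grow cells in 96-well plates. Step 2: Expose to compound for 48 hours at 5 concentrations. Step 3: Interpolate endpoints linearly; if unreached, use highest concentration. Here, GI50 denotes the concentration required for 50% inhibition of growth. TGI is the concentration that stops growth completely.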

Assays:
Experiment in all cases: NCI tumour cell line growth inhibition, 48 h
SK-MEL-28 melanoma = test system: SK-MEL-28 melanoma
SK-OV-3 ovarian = test system: SK-OV-3 ovarian
OVCAR-5 ovarian = test system: OVCAR-5 ovarian
A549 NSCLC = test system: A549 NSCLC
TK-10 renal = test system: TK-10 renal
HCC-2998 colon = test system: HCC-2998 colon
UACC-257 melanoma = test system: UACC-257 melanoma
SR leukemia = test system: SR leukemia
MCF7 breast = test system: MCF7 breast
PC-3 prostate = test system: PC-3 prostate

Structure (SMILES)	TGI (SK-MEL-28 melanoma)	TGI (SK-OV-3 ovarian)	TGI (OVCAR-5 ovarian)	TGI (A549 NSCLC)	TGI (TK-10 renal)	TGI (HCC-2998 colon)	TGI (UACC-257 melanoma)	TGI (SR leukemia)	GI50 (SK-MEL-28 melanoma)	GI50 (SK-OV-3 ovarian)	GI50 (OVCAR-5 ovarian)	GI50 (A549 NSCLC)	GI50 (MCF7 breast)	TGI (MCF7 breast)	GI50 (TK-10 renal)	GI50 (HCC-2998 colon)	GI50 (PC-3 prostate)	TGI (PC-3 prostate)	GI50 (UACC-257 melanoma)	GI50 (SR leukemia)
Clc1ccc(-c2nnc(-c3nn(-c4ccccc4)c4nc5ccccc5nc34)o2)cc1	> 100 µM	> 100 µM	> 100 µM	> 100 µM	> 100 µM	> 100 µM	> 100 µM													
Cn1nc(-c2ccccc2)c2c(/C=C/c3ccc(F)cc3)onc2c1=O	> 100 µM	> 100 µM		> 100 µM	> 100 µM															
CC(=O)N(N=O)c1ccc(N(N=O)C(C)=O)cc1	> 100 µM	> 100 µM	> 100 µM	> 100 µM		> 100 µM		> 100 µM												
NCCCNCc1c2ccccc2c(CNCCCN)c2ccccc12			62.1 µM	82.6 µM	> 100 µM	30.9 µM	45.1 µM													
C/C(COc1ccc2oc(-c3ccccc3)cc(=O)c2c1)=N\O	> 100 µM	> 100 µM	84.7 µM	> 100 µM	94.7 µM	> 100 µM	> 100 µM		23.1 µM	> 100 µM	22 µM	45.4 µM	10.1 µM	36.7 µM	22.6 µM	19.5 µM	26.6 µM	70.5 µM	> 100 µM	
O=C1CC=C2C3CC4N(CCC45c4ccccc4N1C25)C/C3=C\CO (stereo unspecified)	> 100 µM	> 100 µM	> 100 µM	> 100 µM	> 100 µM	> 100 µM	> 100 µM							> 100 µM				> 100 µM		
FC(F)(F)c1cccc(Oc2ccc(Nc3ncnc4ccc(OCCCN5CCOCC5)cc34)cc2Cl)c1	3.01 µM	15.5 µM	7.76 µM	5.64 µM	9.74 µM	3.34 µM	4.52 µM		1.64 µM	1.38 µM	2.45 µM	1.88 µM	1.74 µM	5.17 µM	2.02 µM	1.72 µM	2.4 µM	8.58 µM	2.03 µM	
C/C(=N\NC(=O)c1ccccc1O)c1c(O)cc(C)oc1=O	> 100 µM	86.7 µM	> 100 µM	> 100 µM	> 100 µM	> 100 µM	> 100 µM													
COc1nc(NC2OC(COC(C)=O)C(OC(C)=O)C(OC(C)=O)C2OC(C)=O)c(N=C(C)C(C)=O)c(=O)n1C (stereo unspecified)		> 100 µM	> 100 µM	> 100 µM	> 100 µM	> 100 µM	> 100 µM													
O=C(N/C(=C\c1cccc([N+](=O)[O-])c1)c1nc2c3c(ccc2[nH]1)C(=O)c1ccccc1C3=O)c1ccccc1	85.8 µM	78 µM	90.4 µM	> 100 µM	82.2 µM			> 100 µM												
COc1cccc(C2SC(C)C(=O)N2NC(=O)C(O)c2ccccc2)c1 (stereo unspecified)	> 100 µM	> 100 µM	> 100 µM	> 100 µM	> 100 µM	> 100 µM	> 100 µM		> 100 µM	> 100 µM	> 100 µM	> 100 µM	> 100 µM	> 100 µM	> 100 µM	> 100 µM	> 100 µM	> 100 µM	> 100 µM	
C=CCN=C1NC(=O)C(CC(=O)Nc2cccc(Cl)c2)S1 (stereo unspecified)	> 100 µM	> 100 µM	> 100 µM	> 100 µM	> 100 µM	> 100 µM	> 100 µM													
Cc1ccc(NC(=O)C(=O)C2C(=O)NC(=O)NC2=O)c(C)c1	> 100 µM	> 100 µM	> 100 µM	> 100 µM	> 100 µM	> 100 µM	> 100 µM	> 100 µM												
CCCCSC1CCSc2c1ccc1ccccc21 (stereo unspecified)	> 100 µM	> 100 µM	> 100 µM	> 100 µM	> 100 µM	> 100 µM		> 100 µM												
CN1CCN(c2ccncc2S(=O)(=O)N2CCN(C)CC2)CC1	> 100 µM	> 100 µM	> 100 µM	> 100 µM	> 100 µM		> 100 µM							> 100 µM				> 100 µM		
CSc1ccc(Cc2cc(C(C)(C)C)cc(C(C)(C)C)c2O)cc1	30.8 µM	42.4 µM	13.2 µM	27.3 µM	25.7 µM	32.5 µM	28.2 µM	24.7 µM												
CCCC(=O)Oc1ccc(/C=N/NC(N)=S)nc1	> 100 µM	> 100 µM	> 100 µM	> 100 µM	> 100 µM	> 100 µM	> 100 µM	> 100 µM												
Cc1cc2[nH]c(=O)c3c4ncccc4cn3c2cc1C	> 100 µM	73.7 µM	> 100 µM	> 100 µM	61.8 µM	7.97 µM		6.16 µM	4.7 µM	6.62 µM	> 100 µM	4.82 µM			4.36 µM	2.59 µM	5.83 µM	> 100 µM		2.17 µM
OCC1CC2C=CCC(C2)C1 (stereo unspecified)	> 100 µM	> 100 µM	> 100 µM	> 100 µM	> 100 µM		> 100 µM	> 100 µM												
C=C1C2CC(OC(C)=O)C3(C)C(c4ccoc4)OC(=O)[C@@H](O)[C@]13OC1C[C@H](OC(C)=O)C(C)(C)[C@H](C(O)C(=O)OC)[C@]12C (stereo partly specified)	> 100 µM	> 100 µM		> 100 µM	> 100 µM	> 100 µM														
Cc1cc(C)c([I+]c2c(C)cc(C)cc2C)c(C)c1	2.08 µM	2.37 µM	2.09 µM	2.47 µM	2.06 µM	1.73 µM	1.09 µM		0.774 µM	1.14 µM	0.781 µM	0.958 µM	0.325 µM	1.46 µM	0.712 µM	0.415 µM	0.259 µM	1.14 µM	0.296 µM	
